In patent US20100016335A1, “NOVEL AMINOPYRIDINE DERIVATIVES HAVING AURORA A SELECTIVE INHIBITORY ACTION” (priority 2006, published 2010):
Where a name gives a salt, the structure may show the parent alone.

Assays:
[1] = biological target: T1, human Aurora A (Homo sapiens, UniProt O14965); test: Aurora A inhibitory activity (IMAP fluorescence polarization phosphorylation assay); format: biochemical; conditions: 20 μM ATP, 30° C., 120 minutes
T1 construct: His (N); made in house; host or cells: Escherichia coli BL21-CodonPlus(DE3)-RIL
T1 sequence (O14965 1-403): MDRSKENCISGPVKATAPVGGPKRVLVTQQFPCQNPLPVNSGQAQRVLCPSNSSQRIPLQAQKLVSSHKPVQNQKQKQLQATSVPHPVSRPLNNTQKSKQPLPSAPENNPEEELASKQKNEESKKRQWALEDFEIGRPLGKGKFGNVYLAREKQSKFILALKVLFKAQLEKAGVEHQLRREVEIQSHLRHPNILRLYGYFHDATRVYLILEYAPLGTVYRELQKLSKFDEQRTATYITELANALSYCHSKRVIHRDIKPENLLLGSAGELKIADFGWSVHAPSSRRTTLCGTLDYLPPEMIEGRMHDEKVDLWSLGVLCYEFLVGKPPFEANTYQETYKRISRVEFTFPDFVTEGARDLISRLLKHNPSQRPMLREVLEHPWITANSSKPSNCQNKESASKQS

[2] = biological target: T2, GST-tagged human Aurora B(AurB)/His-tagged human INCENP complex proteins (Homo sapiens, UniProt Q96GD4); test: Aurora B inhibitory activity (Method A, IMAP assay kit); format: biochemical; conditions: 40 μM ATP, 25° C., 45 minutes
T2 construct: GST; purchased Carna Biosciences, Inc
T2 sequence (Q96GD4 whole entry): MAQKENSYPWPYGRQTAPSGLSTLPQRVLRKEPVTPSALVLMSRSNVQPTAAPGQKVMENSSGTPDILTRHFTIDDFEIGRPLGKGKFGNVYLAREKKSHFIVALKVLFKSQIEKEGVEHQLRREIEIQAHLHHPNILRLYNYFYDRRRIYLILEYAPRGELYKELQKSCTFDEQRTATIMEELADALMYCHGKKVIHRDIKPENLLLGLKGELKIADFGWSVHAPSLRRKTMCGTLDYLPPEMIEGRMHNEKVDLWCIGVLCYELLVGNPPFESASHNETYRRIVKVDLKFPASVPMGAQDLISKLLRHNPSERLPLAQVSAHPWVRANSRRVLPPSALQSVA
T2 sequence (Q9NQS7 803-916 partner limits assumed): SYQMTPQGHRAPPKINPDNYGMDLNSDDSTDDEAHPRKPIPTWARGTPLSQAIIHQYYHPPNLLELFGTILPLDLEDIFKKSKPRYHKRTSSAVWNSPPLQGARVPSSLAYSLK

[3] = system: Human cervical cancer cells (HeLa S3); test: Cell growth inhibitory effect, WST-8 method; format: cell-based; conditions: Homo sapiens, 72 h; HeLa S3, three days incubation; read-out: Cell growth inhibitory effect (HeLaS3) (IC50)
Description: Fetal calf serum (FCS) was purchased from Moregate Biotech, and DMEM medium was purchased from Invitrogen Corp. WST-8 was purchased from Kishida Chemical Co., Ltd.
(§1) Human cervical cancer cells (HeLa S3) were obtained from the American Type Culture Collection (ATCC).
Cells were suspended in a DMEM medium containing 10% FCS, and the cell suspension was dispensed to a 96-well plastic plate at a rate of 750 cells/100 microliters per well. The plate was incubated overnight in 5% CO2-95% air at 37° C. A drug was subjected to graded dilution in dimethylsulfoxide and further diluted with a DMEM medium containing 10% FCS. Then, the dilution was dispensed to the plate on which cells had been disseminated in advance, at a rate of 100 microliters per well. The plate was incubated for further three days in 5% CO2-95% air at 37° C. Cell growth after incubation was measured by the WST-8 method (H. Tominaga, et al., Anal. Commun., 36, 47-50 (1999)). Here, the WST-8 method refers to a method in which 20 microliters of a WST-8 reagent solution is added to each well, incubation is conducted at 37° C. for 60 minutes, the plate is stirred, and the amount of formazan produced is measured by a […] method to determine the inhibitory rate of the drug.

[4] = system: Human cervical cancer cells (HeLa S3); test: Effect by combined use of drugs in cells (docetaxel), WST-8 method; format: cell-based; conditions: HeLa S3, three days; for inhibition at 1 µM: compound 1.0 μM alone; for inhibition at 3 µM: compound 3.0 μM alone; for inhibition at 0.3 µM: compound 0.3 μM alone; for inhibition at 0.1 µM: compound 0.1 μM alone
Description: Fetal calf serum (FCS) was purchased from Moregate Biotech, DMEM medium from Invitrogen Corp., docetaxel (tradename: Taxere) from Sigma-Aldrich, Inc., and WST-8 from Kishida Chemical Co., Ltd.
as §1
Cells were suspended in a DMEM medium containing 10% FCS, and the cell suspension was dispensed to two 96-well plastic plates at a rate of 750 cells/100 microliters per well. The plates were incubated overnight in 5% CO2-95% air at 37° C. A drug was subjected to graded dilution in dimethylsulfoxide and further diluted with DMSO or with a DMEM medium containing 10% FCS and also containing 0.6 nM docetaxel. Then, the dilutions were each dispensed to one of the plates on which cells had been disseminated in advance, at a rate of 100 microliters per well. The final concentration of docetaxel at this stage was 0.3 nM. Also, the concentrations in the case of sole administration of the compound according to the invention were 0.003, 0.01, 0.03, 0.1, 0.3, 1, 3 and 10 μM. The plates were incubated for further three days in 5% CO2-95% air at 37° C. Cell growth after incubation was measured by the WST-8 method (H. Tominaga, et al., Anal. Commun., 36, 47-50 (1999)). Here, the WST-8 method refers to a method in which 20 microliters of a WST-8 reagent solution is added to each well, incubation is conducted at 37° C. for 60 minutes, the plate is stirred, and the amount of formazan produced is measured by a colorimetric method to determine the inhibitory rate of the drug. The growth inhibitory effects of docetaxel and of the compound according to the invention were determined, with the value obtained in sole treatment of DMSO being defined as 0%.

[5] = Homo sapiens, HeLa S3, 72 h, read-out: Cell growth inhibitory effect by sole administration of the compound of Example (%)
[6] = compound 1.0 μM + docetaxel 0.3 nM
[7] = compound 3.0 μM + docetaxel 0.3 nM
[8] = compound 0.3 μM + docetaxel 0.3 nM
[9] = compound 0.1 μM + docetaxel 0.3 nM

| Compound | IC50 [1] | IC50 [2] | IC50 [3] | inhibition at 1 µM [4, 5] | inhibition at 3 µM [4, 5] | Cell growth inhibitory effect by combined administration of docetaxel and the compound of Example (%) [4, 6] | Cell growth inhibitory effect by combined administration of docetaxel and the compound of Example (%) [4, 7] | inhibition at 0.3 µM [4, 5] | Cell growth inhibitory effect by combined administration of docetaxel and the compound of Example (%) [4, 8] | inhibition at 0.1 µM [4, 5] | Cell growth inhibitory effect by combined administration of docetaxel and the compound of Example (%) [4, 9] | inhibition at 0.03 µM ([4]; Homo sapiens, HeLa S3, 72 h, compound 0.03 μM alone, read-out: Cell growth inhibitory effect by sole administration of the compound of Example (%)) | Cell growth inhibitory effect by combined administration of docetaxel and the compound of Example (%) ([4]; compound 0.03 μM + docetaxel 0.3 nM) |
| --- | --- | --- | --- | --- | --- | --- | --- | --- | --- | --- | --- | --- | --- |
| O=C(O)[C@]1(Cc2cccc(Nc3cc[nH]n3)n2)CC[C@@H](Oc2cccc(C(F)(F)F)c2F)CC1 [Example 9, trans-4-(2-fluoro-3-(trifluoromethyl)phenoxy)-1-((6-(1H-pyrazol-3-ylamino)pyridin-2-yl)methyl)cyclohexanecarboxylic acid trifluoroacetate] | 0.16 nM | 190 nM | 2210 nM | 37.1% | 59% | 91.8% | 95.0% | – | – | – | – | – | – |
| Cn1nc([C@]2(Cc3cccc(Nc4cc[nH]n4)n3)CC[C@@H](Oc3cccc(Cl)c3F)CC2)oc1=O [Example 26, 5-(trans-4-(3-chloro-2-fluorophenoxy)-1-((6-(1H-pyrazol-3-ylamino)pyridin-2-yl)methyl)cyclohexyl)-3-methyl-1,3,4-oxadiazol-2(3H)-one] | 1.4 nM | 800 nM | 3300 nM | 18.2% | – | 88.5% | – | 11.8% | 67.3% | – | – | – | – |
| NC(=O)[C@]1(Cc2cccc(Nc3nccs3)n2)CC[C@@H](Oc2cccc(Cl)c2F)CC1 [Example 8, trans-4-(3-chloro-2-fluorophenoxy)-1-((6-(1,3-thiazol-2-ylamino)pyridin-2-yl)methyl)cyclohexanecarboxamide] | 0.54 nM | 150 nM | 1260 nM | 49% | – | 95.0% | – | 12.2% | 84.6% | – | – | – | – |
| NC(=O)[C@]1(Cc2cccc(Nc3cc[nH]n3)n2)CC[C@@H](Oc2cccc(Cl)c2F)CC1 [Example 11, trans-4-(3-chloro-2-fluorophenoxy)-1-((6-(1H-pyrazol-3-ylamino)pyridin-2-yl)methyl)cyclohexanecarboxamide] | 1.8 nM | 750 nM | 2800 nM | 25.4% | – | 84.5% | – | 15.1% | 72.1% | – | – | – | – |
| O=c1[nH]nc([C@]2(Cc3cccc(Nc4cc[nH]n4)n3)CC[C@@H](Oc3cccc(C(F)(F)F)c3F)CC2)o1 [Example 20, 5-(trans-4-(2-fluoro-3-(trifluoromethyl)phenoxy)-1-((6-(1H-pyrazol-3-ylamino)pyridin-2-yl)methyl)cyclohexyl)-1,3,4-oxadiazol-2(3H)-one] | 1 nM | 660 nM | 900 nM | 49.8% | – | 94.4% | – | 25.9% | 85.0% | – | – | – | – |
| O=c1[nH]nc([C@]2(Cc3cccc(Nc4cc[nH]n4)n3)CC[C@@H]([S+]([O-])c3cccc(Cl)c3Cl)CC2)o1 (stereo partly drawn) [Example 35, 5-(trans-4-((2,3-dichlorophenyl)sulfinyl)-1-((6-(1H-pyrazol-3-ylamino)pyridin-2-yl)methyl)cyclohexyl)-1,3,4-oxadiazol-2(3H)-one trifluoroacetate] | 0.31 nM | 120 nM | 220 nM | – | – | – | – | – | – | 42.7% | 89.9% | 25.1% | 78.0% |
| O=C(O)[C@]1(Cc2cccc(Nc3nccs3)n2)CC[C@@H]([S+]([O-])c2cccc(Cl)c2Cl)CC1 (stereo partly drawn) [Example 31, trans-4-((2,3-dichlorophenyl)sulfinyl)-1-((6-(1,3-thiazol-2-ylamino)pyridin-2-yl)methyl)cyclohexanecarboxylic acid trifluoroacetate] | 0.19 nM | 53 nM | 5890 nM | 1% | 38.5% | 75.1% | 89.0% | – | – | – | – | – | – |

Now from value to molecule, other results behind:

| IC50 [1] | IC50 [2] | IC50 [3] | Compound | inhibition at 1 µM [4, 5] | inhibition at 3 µM [4, 5] | Cell growth inhibitory effect by combined administration of docetaxel and the compound of Example (%) [4, 6] | Cell growth inhibitory effect by combined administration of docetaxel and the compound of Example (%) [4, 7] | inhibition at 0.3 µM [4, 5] | Cell growth inhibitory effect by combined administration of docetaxel and the compound of Example (%) [4, 8] | inhibition at 0.1 µM [4, 5] | Cell growth inhibitory effect by combined administration of docetaxel and the compound of Example (%) [4, 9] | inhibition at 0.03 µM ([4]; Homo sapiens, HeLa S3, 72 h, compound 0.03 μM alone, read-out: Cell growth inhibitory effect by sole administration of the compound of Example (%)) | Cell growth inhibitory effect by combined administration of docetaxel and the compound of Example (%) ([4]; compound 0.03 μM + docetaxel 0.3 nM) |
| --- | --- | --- | --- | --- | --- | --- | --- | --- | --- | --- | --- | --- | --- |
| 0.12 nM | 59 nM | 3950 nM | Cl.O=C(O)[C@]1(Cc2cccc(Nc3nccs3)n2)CC[C@@H](Oc2cccc(F)c2F)CC1 [Example 3, trans-4-(2,3-difluorophenoxy)-1-((6-(1,3-thiazol-2-ylamino)pyridin-2-yl)methyl)cyclohexanecarboxylic acid hydrochloride] | 26.9% | – | 90.4% | – | 5.4% | 74.1% | – | – | – | – |
| 0.43 nM | 370 nM | 1130 nM | O=c1[nH]nc([C@]2(Cc3cccc(Nc4cc[nH]n4)n3)CC[C@@H](S(=O)(=O)c3cccc(Cl)c3Cl)CC2)o1 [Example 36, 5-(trans-4-((2,3-dichlorophenyl)sulfonyl)-1-((6-(1H-pyrazol-3-ylamino)pyridin-2-yl)methyl)cyclohexyl)-1,3,4-oxadiazol-2(3H)-one trifluoroacetate] | – | – | – | – | 32% | 88.9% | 2.6% | 76.8% | – | – |
| 0.49 nM | 200 nM | 900 nM | CONC(=O)[C@]1(Cc2cccc(Nc3nccs3)n2)CC[C@@H](Oc2cccc(Cl)c2F)CC1 [Example 18, trans-4-(3-chloro-2-fluorophenoxy)-N-methoxy-1-((6-(1,3-thiazol-2-ylamino)pyridin-2-yl)methyl)cyclohexanecarboxamide] | – | – | – | – | 21.3% | 77.4% | 7.4% | 61.5% | – | – |
